Experimental data taken from patent US20230330229A1, “METHODS FOR IMAGE-GUIDED RADIOTHERAPY” (UNIVERSITE CLAUDE BERNARD LYON 1, priority 2020, published 2023).

What was measured:
[1] = magnetic field of 3 Tesla, literature reference; cited from earlier work
brain metastases = assay: MRI signal enhancement in brain metastases (Nano-Rad phase I-b trial, 3 Tesla, 3D T1-weighted); type: in vivo, human; conditions: D0, 15 min after injection, 0.1 mmol/kg i.v., metastases >1 cm
Excerpt: This study is part of a prospective dose escalation phase I-b clinical trial to evaluate the tolerance of the intravenous administration of radiosensitizing AGuIX nanoparticles in combination with whole brain radiotherapy for the treatment of brain metastases. The Nano-Rad trial (Radiosensitization of Multiple Brain Metastases Using AGuIX Gadolinium Based Nanoparticles) was registered as NCT02820454. Here, we report the findings of the MRI protocol applied to the 15 recruited patients. […]
MRI analyses were performed using an in-house computer program called MP3 (https://github.com/nifm-gin/MP3) developed by the GIN Laboratory (Grenoble, France) and running under Matlab® software. Image analyses include counting and measurements of metastases, quantification of contrast enhancement, relaxation times and concentration of nanoparticles. […] The MRI enhancement, expressed in percentage, was defined as the ratio of the MRI signal amplitude post contrast agent administration over the MRI signal amplitude pre contrast agent administration; the MRI signal amplitude being measured in the 3D T1-weighted image dataset. […]

[2] = Detection of solutions in Eppendorf by MRIdian MR-linac at 0.35 T; conditions: spin echo, solutions in PPI water
Procedure: ViewRay Linac MRI displaying magnetic field of 0.35 T (MRIdian MR-linac, ViewRay Inc., Oakwood, USA) (S. Klüter, Clinical and Translational Radiation Oncology, 2019), samples with different concentrations in gadolinium were tested and compared to Multihance (Bracco) using the Torso coil (two surface flexible 6-channel coils array).
The ViewRay MRIdian system is clinically used for external radiotherapy purpose, thus it is a very appropriate device dedicated to the use of the AGuIX. A 2D coronal spin echo sequence was used: TR=400 ms, TE=20 ms, Flip Angle=90°, Bandwidth=57. Hz/Px, Matrix=512×512, Slice Thickness=3 mm, Field Of View=350×350×263 mm, Number of Averages=5. The total acquisition time was 12:30 minutes.
Solutions of multihance and AGuIX were prepared by dilution in PPI water from stock solutions of 0.5 mol·L^−1 and 100 g·L^−1 respectively 1 hour before imaging and placed in Eppendorf.

Structure (SMILES) | r1 per Gd^3+ ion [1] [mM⁻¹ s⁻¹] | MRI enhancement averaged over all measurable metastases (brain metastases) [%] | Detection sensitivity (lowest detected [Gd^3+]) [2] [µM]
CNC[C@H](O)[C@@H](O)[C@H](O)[C@H](O)CO.O=C([O-])CN1CCN(CC(=O)[O-])CCN(CC(=O)O)CCN(CC(=O)[O-])CC1.[Gd+3] [Dotarem, gadoterate meglumine] | 3.5 | 182.9±116.2 | –
O=C([O-])CN(CCN(CC(=O)[O-])CC(=O)[O-])CCN(CC(=O)[O-])C(COCc1ccccc1)C(=O)[O-].[Gd+3].[H+].[H+] (stereo not drawn) [Multihance, gadobenic acid] | – | – | 25
